# Values of other authors in patent US20100104638A1 (priority 2008, published 2010).
structure (smiles),measurement,value
"CC(=O)Nc1ccc(O)cc1 [Acetaminophen, N-(4-hydroxyphenyl) acetamide]",Aqueous solubility,about 14 mg/ml
